This is an account of results in patent publication US20140243332A1, “METHODS OF TREATING CANCERS CHARACTERIZED BY ABERRENT ROS1 ACTIVITY” (Oregon Health & Science University, priority 2013, published 2014).

In series [1] the target is Ba/F3 CD74-ROS G2032R mutant cells (Homo sapiens, UniProt P08922, G2032R, cells depend on it). Description: Cell growth assay, Ba/F3 CD74-ROS G2032R. The format is cell-based. The note with it: 72 hour exposure, read-out: IC50 (the source's name).
From the text: Data are shown as normalized to vehicle-treated cells. The values are means±SEM from three independent experiments performed in triplicate.
Series [2] addresses Ba/F3 FIG-ROS kinase domain mutants (Homo sapiens, UniProt P08922, cells depend on it, form not given). The series is described as follows: Cell viability assay, all tested Ba/F3 FIG-ROS kinase domain mutants. The note with it: V2098I, G1971E, L1982F, C2060G, L1947R, E1935G; read-out: IC50 across all tested FIG-ROS mutants. It counts as cell-based. How it is done: Cell lines were distributed in 96-well plates and incubated with the indicated concentrations of inhibitor for 72 hours. […] Ba/F3 cell lines were plated at 4×10^3 cells/well. HCC78 and mCC cell lines were plated at 1.5×10^3 cells/well. All cell types were seeded in a final volume of 80 microliters. A 20 microliter volume of five-fold concentrated inhibitor media was added. Cell proliferation was measured using a […] viability assay (CellTiter96 Aqueous One® Solution; Promega). A BioTek Synergy 2® plate reader was used to read the absorbance at 490 nm at 30 minutes and 1 hour after addition of MTS. To facilitate comparison between experiments, the raw MTS absorbance of vehicle (0.1% DMSO) treated cells was set to 1 and absorbance from inhibitor treated wells was normalized to the vehicle treated value. […] Data were normalized using Microsoft Excel® and further non-linear regression curve fit analysis of the normalized data for determination of IC50 was performed using Graphpad Prism® software.
The FIG-ROS-S fusion gene was synthesized using the GeneArt® service. FIG-ROS-S is denoted as FIG-ROS herein.

For series [3], the system named is FIG-ROS tumors. Description: In vivo treatment of mice bearing subcutaneous FIG-ROS cholangiocarcinoma tumors. The note with it: 25 mg/kg oral gavage once daily, 9 days, immunodeficient mice; foretinib p<0.0001 for Lines 4 and 6.
Method: Mouse chorangiocarcinoma cell lines expressing either FIG-ROS or shPten were subcutaneously injected into 11 week old female immune-deficient mice. […] Caliper measurements were taken at the time of treatment initiation and 24 hrs after administration of the last dose. Data in waterfall plots is calculated as follows: ((tumor volume Tend/tumor volume T0)−1). Caliper measurements of tumors were taken at T0 and Tend. Tumor volume is calculated as: 0.5*L*Ŵ2(L>W).
Tumors were formed by subcutaneous injection of the murine cholangiocarcinoma cell lines described above in the flanks of immunodeficient mice. […] Caliper measurements were taken at the time of treatment initiation (Ti) and 24 h after administration of the last dose (Tend).
The target of series [4] is T1, Ba/F3 FIG-ROS cells (Homo sapiens, UniProt P08922).
T1 construct: fused on or other part: GFP is co-expressed from an IRES in pMIG and is not fused; Q9HD26 (Golgi-associated PDZ and coiled-coil motif-containing protein)
T1 sequence (P08922 whole entry, change not shown, the tested form may be a part): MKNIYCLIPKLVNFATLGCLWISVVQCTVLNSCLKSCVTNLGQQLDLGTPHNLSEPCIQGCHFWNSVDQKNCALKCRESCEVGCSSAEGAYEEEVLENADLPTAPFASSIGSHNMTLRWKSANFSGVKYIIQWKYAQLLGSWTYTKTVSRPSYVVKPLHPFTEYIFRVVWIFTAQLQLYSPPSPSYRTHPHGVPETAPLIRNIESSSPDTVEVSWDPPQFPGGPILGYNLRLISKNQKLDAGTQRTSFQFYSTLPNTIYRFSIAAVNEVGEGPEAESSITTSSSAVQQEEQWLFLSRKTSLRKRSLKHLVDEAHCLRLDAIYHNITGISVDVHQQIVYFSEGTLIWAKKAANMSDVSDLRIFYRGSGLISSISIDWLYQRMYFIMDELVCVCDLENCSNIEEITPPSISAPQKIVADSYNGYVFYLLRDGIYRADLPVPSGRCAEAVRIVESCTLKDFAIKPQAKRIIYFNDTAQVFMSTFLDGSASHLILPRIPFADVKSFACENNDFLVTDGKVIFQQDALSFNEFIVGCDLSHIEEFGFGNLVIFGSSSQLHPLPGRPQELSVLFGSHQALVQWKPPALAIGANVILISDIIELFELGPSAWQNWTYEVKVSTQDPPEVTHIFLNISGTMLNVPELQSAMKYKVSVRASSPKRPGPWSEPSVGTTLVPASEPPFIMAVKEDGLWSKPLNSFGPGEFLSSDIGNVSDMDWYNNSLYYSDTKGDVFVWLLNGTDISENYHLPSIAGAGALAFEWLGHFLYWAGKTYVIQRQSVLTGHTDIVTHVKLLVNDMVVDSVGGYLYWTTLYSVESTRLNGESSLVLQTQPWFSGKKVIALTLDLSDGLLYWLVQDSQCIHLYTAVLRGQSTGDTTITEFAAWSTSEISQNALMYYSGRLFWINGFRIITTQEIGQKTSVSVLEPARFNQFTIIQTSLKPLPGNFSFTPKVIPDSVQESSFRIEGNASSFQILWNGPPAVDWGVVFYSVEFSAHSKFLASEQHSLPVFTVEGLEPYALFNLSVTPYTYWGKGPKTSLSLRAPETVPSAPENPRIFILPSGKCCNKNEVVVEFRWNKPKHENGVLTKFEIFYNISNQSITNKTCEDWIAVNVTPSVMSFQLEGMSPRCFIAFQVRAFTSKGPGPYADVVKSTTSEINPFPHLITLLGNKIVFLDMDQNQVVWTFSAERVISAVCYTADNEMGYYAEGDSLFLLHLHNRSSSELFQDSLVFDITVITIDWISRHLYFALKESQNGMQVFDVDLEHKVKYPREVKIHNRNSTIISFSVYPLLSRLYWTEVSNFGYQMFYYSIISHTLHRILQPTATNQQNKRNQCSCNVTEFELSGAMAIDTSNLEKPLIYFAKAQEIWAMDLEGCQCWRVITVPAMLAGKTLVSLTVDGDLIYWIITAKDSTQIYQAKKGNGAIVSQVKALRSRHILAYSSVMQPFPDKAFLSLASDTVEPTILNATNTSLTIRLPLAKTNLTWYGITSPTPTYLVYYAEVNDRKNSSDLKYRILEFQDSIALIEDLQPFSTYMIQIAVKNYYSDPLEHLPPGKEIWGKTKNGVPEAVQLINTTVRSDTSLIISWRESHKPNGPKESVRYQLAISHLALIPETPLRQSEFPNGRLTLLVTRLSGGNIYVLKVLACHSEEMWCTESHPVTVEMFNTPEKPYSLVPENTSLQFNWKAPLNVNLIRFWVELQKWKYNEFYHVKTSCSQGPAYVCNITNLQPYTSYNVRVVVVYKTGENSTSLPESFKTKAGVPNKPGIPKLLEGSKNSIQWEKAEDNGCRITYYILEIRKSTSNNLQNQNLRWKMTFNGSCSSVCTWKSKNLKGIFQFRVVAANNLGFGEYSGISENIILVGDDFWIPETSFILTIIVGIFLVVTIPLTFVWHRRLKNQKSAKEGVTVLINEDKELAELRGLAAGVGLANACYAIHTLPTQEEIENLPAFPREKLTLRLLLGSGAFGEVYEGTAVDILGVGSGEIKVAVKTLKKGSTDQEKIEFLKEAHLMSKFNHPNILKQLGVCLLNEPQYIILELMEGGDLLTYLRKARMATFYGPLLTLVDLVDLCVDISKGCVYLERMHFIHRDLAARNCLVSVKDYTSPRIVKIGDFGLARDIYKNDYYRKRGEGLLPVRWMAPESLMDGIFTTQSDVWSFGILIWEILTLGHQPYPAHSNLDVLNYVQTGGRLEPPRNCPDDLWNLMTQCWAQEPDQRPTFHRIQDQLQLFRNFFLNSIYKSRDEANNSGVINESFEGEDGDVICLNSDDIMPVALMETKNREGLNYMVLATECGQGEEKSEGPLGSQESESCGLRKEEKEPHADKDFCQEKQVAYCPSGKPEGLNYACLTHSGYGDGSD
The series is described as follows: Cell viability (MTS) assay, Ba/F3 FIG-ROS. The format is cell-based. The source says:
Ba/F3 cell lines were maintained at densities of 0.5×10^6 to 1.5×10^6 per ml of media. FIG-ROS and SLC-ROS Ba/F3 lines were created by infecting the parental Ba/F3 with retrovirus expressing either human FIG-ROS-S (indicated FIG-ROS herein) or SLC-ROS-S (indicated SLC-ROS herein). Stable transfectant lines were sorted for GFP expression on a FACS Aria® flow cytometer. Cells were counted daily using Guava ViaCount® reagent and Guava Personal Cell Analysis® flow cytometer. […] Early passage NIH3T3 cells were infected with retrovirus expressing either FIG-ROS or SLC-ROS and sorted for GFP expression as described above for Ba/F3 cells. […] This media is referred to as RPMI-10% FBS herein.
The FIG-ROS-S (FIG-ROS) fusion protein has been reported in non-small cell lung cancers (NSCLC), glioblastomas, and cholangiocarcinomas.

For series [5] the following is noted: established, reported in the literature; read-out: steady state maximum plasma concentration Cmax; cited from earlier work.
Series [6] addresses SLC-ROS (Homo sapiens, UniProt P08922). The series is described as follows: Immunoblot of Ba/F3 SLC-ROS lysates. It counts as cell-based. Set-up: SLC34A2 N-terminal portion, fusion partner; expressed in transfected cells; host or cells: Ba/F3 (A15), retroviral pMIG; the other entry of the earlier key: SLC34A2 (O95436, Sodium-dependent phosphate transport protein 2B). The note with it: Ba/F3 SLC-ROS cells, increasing amounts, immunoblot FIG. 1C. The procedure: FIG. 1C is an image of an immunoblot of lysates of Ba/F3 FIG-ROS and Ba/F3 SLC-ROS and the indicated downstream effectors after treatment with the indicated compounds. Images shown are representative of three independent experiments.
(§1) Ba/F3 FIG-ROS, Ba/F3 SLC-ROS, HCC78 and mCC cell lines were treated with the indicated concentration of inhibitors for 1-2 hours. […] The protein content of the cell lysates was determined and lysates were either used for immunoprecipitation where indicated or extracted with SDS Sample buffer for 15 minutes at 80° C. Proteins were transferred to Immobilon-FL membranes and immunoblotted with antibodies specific for phospho-ROS1 (Cell Signaling Technology (CST) #3078), total ROS1 (CST #3266), phopsho-Shp2 (CST #3751), total Shpt (CST #3752), phospho-Stat3 (CST #9145), total Stat3 (CST #4904), phospho-Erk1/2 (CST #9101), total Erk2 (Santa Cruz #SC-1647), phospho-S6 (CST #4858), total S6 (CST #2216), phospho-Src (CST #2105), total Src (CST #2110), α-tubulin (Sigma T6199), or β-actin (Sigma A1978) as indicated. Images of the blots were generated by the LI-COR Odyssey® imaging system, following the manufacturer's protocol for immunoblot detection with use of IR-dye conjugated secondary antibodies.
(In general: In western blotting, separated proteins are transferred to a membrane and probed.)

In series [7] the target is FIG-ROS (Homo sapiens, UniProt P08922). Description: Immunoblot of FIG-ROS murine cholangiocarcinoma cell lysates. It counts as cell-based. Set-up: expressed in transfected cells; host or cells: murine cholangiocarcinoma tumour cell lines (lines 3 and 4) derived from transduced mouse hepatoblasts; the other entry of the earlier key: GOPC (Q9HD26, Golgi-associated PDZ and coiled-coil motif-containing protein). The note with it: 100 nM, FIG-ROS murine cholangiocarcinoma cells. The procedure:
[…]. Images shown are representative of three independent experiments.
as §1
. The inhibition was dose dependent (FIG. 2B). […].

Where two headings read alike, the source gives them in different places.

Chain of SLC-ROS (P08922 with tags, fused parts or gaps): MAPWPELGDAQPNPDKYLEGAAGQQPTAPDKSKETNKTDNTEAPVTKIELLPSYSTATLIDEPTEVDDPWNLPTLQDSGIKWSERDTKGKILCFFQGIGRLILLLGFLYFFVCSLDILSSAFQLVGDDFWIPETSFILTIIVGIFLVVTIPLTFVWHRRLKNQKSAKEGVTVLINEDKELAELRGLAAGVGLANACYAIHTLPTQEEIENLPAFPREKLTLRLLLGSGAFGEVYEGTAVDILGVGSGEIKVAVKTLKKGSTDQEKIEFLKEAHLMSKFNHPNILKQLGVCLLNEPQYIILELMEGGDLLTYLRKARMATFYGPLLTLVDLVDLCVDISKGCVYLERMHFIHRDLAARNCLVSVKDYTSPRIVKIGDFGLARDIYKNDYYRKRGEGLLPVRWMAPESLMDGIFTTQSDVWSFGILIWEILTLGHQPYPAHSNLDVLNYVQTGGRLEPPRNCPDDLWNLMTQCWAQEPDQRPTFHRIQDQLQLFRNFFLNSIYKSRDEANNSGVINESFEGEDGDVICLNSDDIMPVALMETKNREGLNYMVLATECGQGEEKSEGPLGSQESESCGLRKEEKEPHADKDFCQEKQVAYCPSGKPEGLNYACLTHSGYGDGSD
Chain of FIG-ROS (P08922 with tags, fused parts or gaps): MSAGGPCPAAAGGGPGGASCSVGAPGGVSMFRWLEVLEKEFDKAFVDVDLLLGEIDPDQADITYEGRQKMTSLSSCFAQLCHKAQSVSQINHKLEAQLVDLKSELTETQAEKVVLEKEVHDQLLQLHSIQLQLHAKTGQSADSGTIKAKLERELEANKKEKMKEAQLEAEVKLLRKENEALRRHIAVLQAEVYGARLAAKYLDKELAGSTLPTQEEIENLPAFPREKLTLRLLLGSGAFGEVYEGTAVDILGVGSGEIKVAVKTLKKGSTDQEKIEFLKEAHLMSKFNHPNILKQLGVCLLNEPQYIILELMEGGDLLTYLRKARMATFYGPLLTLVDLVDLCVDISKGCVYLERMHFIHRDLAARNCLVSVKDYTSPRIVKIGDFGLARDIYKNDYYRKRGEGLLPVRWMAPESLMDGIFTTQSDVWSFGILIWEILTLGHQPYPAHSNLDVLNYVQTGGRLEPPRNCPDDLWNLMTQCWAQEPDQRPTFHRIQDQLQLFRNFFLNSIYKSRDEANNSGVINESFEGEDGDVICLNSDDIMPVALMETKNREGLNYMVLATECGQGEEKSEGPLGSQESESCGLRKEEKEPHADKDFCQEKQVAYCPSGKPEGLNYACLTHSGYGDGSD
Chain of Ba/F3 CD74-ROS G2032R mutant cells (P08922 whole entry G2032R, the tested form may be a part): as the sequence (P08922 whole entry, change not shown, the tested form may be a part) above, with G2032R counted along it

In the case of `COc1cc2c(Oc3ccc(NC(=O)C4(C(=O)Nc5ccc(F)cc5)CC4)cc3F)ccnc2cc1OCCCN1CCOCC1` [foretinib, N1′-[3-fluoro-4-[[6-methoxy-7-(3-morpholinopropoxy)-4-quinolyl]oxy]phenyl]-N1-(4-fluorophenyl)cyclopropane-1,1-dicarboxamide], the GI50 in series [1] was 50 nM; in series [2], below 20 nM; in series [4] (Table 3, mutant: None (Ba/F3 FIG-ROS), nM, read-out: IC50 (the source's name)), 2.03 nM; in series [4] (read-out: IC50 (50% growth inhibitory concentration), Ba/F3 FIG-ROS cells, 72 hours, MTS), 2 nM; in series [4] (read-out: IC50 (50% growth inhibitory concentration), Ba/F3 FIG-ROS cells, 72 hours, MTS, listed as Foretinib) it was 2.2 nM. Also, the FIG-ROS tumor volume result in series [3] was “dramatically and significantly reduced”. For the same compound, in series [5], the Cmax is 340 nM. In series [6], the “autophosphorylation of SLC-ROS and ROS1-driven signaling (phospho-Shp2, phospho-ERK1/2)” value is reported as “dose dependent decrease”. Moreover, in series [7], the “auto-phosphorylation of FIG-ROS and phosphorylation of Shpt and ERK1/2” value is “almost completely inhibited”.
